Test results from publication PMC6770006, “Novel Heat Shock Protein 90 Inhibitors Suppress P-Glycoprotein Activity and Overcome Multidrug Resistance in Cancer Cells” (International Journal of Molecular Sciences, 2019).

Tests used:
NCI-H460/R cells = test: MTT assay, cell growth inhibition, NCI-H460/R (MDR); type: cell-based, human; details: for Efficacy in MDR NCI-H460/R cells compared with sensitive NCI-H460: 72 h; for IC50: Homo sapiens, NCI-H460, 72 h, MDR cells
Experimental: (§1) A series of 3-aryl-naphtho[2,3-d]isoxazole-4,9-diones were synthesized (Scheme 1, Figure 1) and their growth inhibition activity was tested in vitro on human non-small cell lung carcinoma NCI-H460, colorectal carcinoma DLD1 and their corresponding MDR cells (NCI-H460/R and DLD1-TxR, respectively), as well as normal embryonic lung fibroblasts MRC-5. The differences in cell growth inhibition between cancer and normal cells obtained by the MTT assay after 72 h treatment are presented in Table 1. The effect of compounds is presented as IC50 values that correspond to the 50% of cell growth inhibition.
Human colorectal carcinoma (DLD1), non-small cell lung carcinoma (NCI-H460), and normal embryonic lung fibroblast (MRC-5) cell lines were purchased from the American Type Culture Collection, Rockville, MD. P-gp overexpressing multidrug resistant DLD1-TxR cells were selected by continuous exposure to stepwise increasing concentrations of paclitaxel from DLD1 cells, while NCI-H460/R cells were selected from NCI-H460 cells after DOX selective pressure. MDR cancer cell lines, DLD1-TxR and NCI-H460/R, and their sensitive counterparts were maintained in RPMI 1640 medium supplemented with 10% FBS, 2 mM L-glutamine, and 10,000 U/mL penicillin, 10 mg/mL streptomycin, 25 mg/mL amphotericin B solutions. MRC-5 cells were cultured in DMEM supplemented with 10% FBS, 4 g/L glucose, 2 mM L-glutamine and 5000 U/mL penicillin, 5 mg/mL streptomycin solution. All cell lines were sub-cultured at 72 h intervals using 0.25% trypsin/EDTA and seeded into a fresh medium at 8000 cells/cm^2. All cell lines were maintained at 37 °C in a humidified 5% CO2 atmosphere.
(§2) Cell viability was assessed by the MTT assay (AppliChem GmbH, Darmstadt, Germany). Cells grown in 25 cm^2 tissue flasks were trypsinized and 1000 cells/well were seeded into flat-bottomed 96-well tissue culture plates and incubated overnight. Subsequently, the cells were treated with increasing concentrations of Hsp90 inhibitors for 72 h: compound 3 (0.1–2.5 µM), compound 4 (0.25–5 µM), compound 5 (0.5–25 µM), compound 6 (50–1000 nM), compound 7 (10–250 nM), compound 8 (0.25–5 µM), compound 9 (10–250 nM), compound 10 (0.5–25 µM), compound 13 (0.5–10 µM), compound 14 (1–25 µM), and compound 15 (10–250 nM). […] After treatment, MTT was added to each well in a final concentration of 0.2 mg/mL for 4 h. Formazan product was dissolved in 200 µl of DMSO, and the absorbance was measured at 540 nm using an automatic LKB 5060-006 Micro Plate Reader (Vienna, Austria). IC50 value was defined as a concentration of the drug that inhibited cell growth by 50% and was calculated by nonlinear regression analysis using GraphPad Prism 6.0 for Windows (La Jolla, CA, USA). Relative selectivity towards cancer cells was calculated as a relation between IC50 value obtained in MRC-5 cells and an average IC50 value from four tested cancer cell lines.

Hsp90 = system: Hsp90; parameters: method as in PMID 22538015; details: read-out: Hsp90 Affinity binding; cited from earlier work
P-gp expression = test: Flow cytometric analysis of P-gp expression; type: cell-based, human; details: 72 h; for Change in P-gp expression, DLD1 / Change in P-gp expression, NCI-H460: 5 µM 5, 200 nM 7, 100 nM 9, 10 nM TQ, 50 nM DOX, 50 nM PTX
Experimental: P-glycoprotein expression level in NCI-H460, NCI-H460/R, DLD1, and DLD1-TxR and cells was measured by flow cytometry. All cell lines were seeded in adherent 6-well plates and treated with Hsp90 inhibitors for 72 h at the following concentrations: 5 µM compound 5, 200 nM compound 7, 100 nM compound 9 (NCI-H460 and DLD1), and 10 µM compound 5, 500 nM compound 7, 500 nM compound 9 (NCI-H460/R and DLD1-TxR). Cells were also treated with 10 nM TQ, a non-competitive P-gp inhibitor, which served as a positive control. In addition, sensitive cells (NCI-H460 and DLD1) were treated with 50 nM DOX and 50 nM PTX that served as positive controls for the induction of P-gp expression. Then, cells were collected by trypsinization, washed with PBS, and directly immunostained by FITC-conjugated anti-P-gp antibody according to the manufacturer’s protocol. The samples were kept in the dark until the analysis on CyFlow Space Partec flow cytometer (Sysmex Partec GmbH, Görlitz, Germany). The fluorescence of FITC-conjugated anti-P-gp was detected on fluorescence channel 1 (FL1-H) at 530 nm. A minimum of 10,000 events were collected for each sample (the gate excluded cell debris and dead cells) and the obtained results were analyzed with Summit software v4.3 (Dako Colorado Inc., Fort Collins, CO, USA).

P-gp = P-gp (Homo sapiens, UniProt P08183); test: Rhodamine 123 accumulation assay (P-gp activity, flow cytometry); type: cell-based; parameters: P-gp overexpressing multidrug resistant DLD1-TxR cells were selected by continuous exposure to stepwise increasing concentrations of paclitaxel from DLD1 cells; endogenous in cells; host or cells: NCI-H460/R and DLD1-TxR (drug-selected MDR human cancer cells); details: NCI-H460/R and DLD1-TxR, 30 min, Figure 3b
P-gp, sequence (P08183 whole entry): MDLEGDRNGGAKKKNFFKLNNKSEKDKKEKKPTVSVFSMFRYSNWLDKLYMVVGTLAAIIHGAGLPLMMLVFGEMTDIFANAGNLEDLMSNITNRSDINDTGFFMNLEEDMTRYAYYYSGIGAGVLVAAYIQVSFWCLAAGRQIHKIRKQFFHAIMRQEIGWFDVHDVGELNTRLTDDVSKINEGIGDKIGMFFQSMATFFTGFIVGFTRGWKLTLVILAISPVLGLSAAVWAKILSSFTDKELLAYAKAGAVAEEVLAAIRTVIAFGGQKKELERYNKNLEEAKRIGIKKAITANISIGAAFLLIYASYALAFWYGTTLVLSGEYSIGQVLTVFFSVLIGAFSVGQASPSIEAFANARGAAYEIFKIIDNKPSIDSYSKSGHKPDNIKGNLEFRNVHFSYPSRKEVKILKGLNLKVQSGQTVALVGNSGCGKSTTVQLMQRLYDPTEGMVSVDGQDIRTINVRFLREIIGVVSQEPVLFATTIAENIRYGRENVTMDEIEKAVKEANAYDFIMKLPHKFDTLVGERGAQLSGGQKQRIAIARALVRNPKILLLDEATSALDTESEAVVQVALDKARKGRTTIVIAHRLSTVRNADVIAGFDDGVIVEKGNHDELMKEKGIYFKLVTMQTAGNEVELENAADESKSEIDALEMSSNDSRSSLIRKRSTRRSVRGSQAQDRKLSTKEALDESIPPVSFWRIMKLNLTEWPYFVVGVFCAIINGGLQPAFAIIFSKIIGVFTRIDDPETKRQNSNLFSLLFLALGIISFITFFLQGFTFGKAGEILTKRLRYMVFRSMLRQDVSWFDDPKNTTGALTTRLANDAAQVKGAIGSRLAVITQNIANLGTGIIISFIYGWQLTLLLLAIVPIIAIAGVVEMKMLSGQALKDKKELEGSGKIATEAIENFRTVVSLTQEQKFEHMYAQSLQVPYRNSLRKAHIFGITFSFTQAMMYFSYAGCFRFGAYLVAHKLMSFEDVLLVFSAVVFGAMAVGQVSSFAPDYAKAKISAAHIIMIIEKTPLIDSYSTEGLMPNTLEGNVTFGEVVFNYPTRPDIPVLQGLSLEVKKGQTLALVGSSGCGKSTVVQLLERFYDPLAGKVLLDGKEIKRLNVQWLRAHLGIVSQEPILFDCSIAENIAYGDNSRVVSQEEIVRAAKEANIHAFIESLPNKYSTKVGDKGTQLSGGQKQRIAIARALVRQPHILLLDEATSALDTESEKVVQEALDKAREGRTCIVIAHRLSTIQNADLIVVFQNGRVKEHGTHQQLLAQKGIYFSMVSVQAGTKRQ

[1] = system: NCI-H460, NCI-H460/R, DLD1, DLD1-TxR cells; test: MTT assay, grouping of inhibitors by IC50 over the cancer cell lines; type: cell-based; details: Homo sapiens, Figure 2b, read-out: IC50 values (grouping for Pearson correlation)
Experimental: When the IC50 values obtained by the MTT assay were compared to Hsp90 affinity binding IC50 values (Table 1), a positive Pearson correlation (r > 0.5) was found for all cancer cell lines (Figure 2b).
as §2

MRC-5 cells = test: MTT assay, normal embryonic lung fibroblasts MRC-5; type: cell-based, human; details: for IC50: Homo sapiens, MRC5, MTT, 72 h, normal fibroblasts, read-out: Cell growth inhibition IC50, MRC-5; for Relative Selectivity: IC50 in MRC-5 cells / average IC50 of four cancer cell lines
Experimental: as §1, §2

Row | SMILES | Efficacy in MDR NCI-H460/R cells compared with sensitive NCI-H460 (NCI-H460/R cells) | IC50 (NCI-H460/R cells) [nM] | IC50 (Hsp90) [nM] | Change in P-gp expression, DLD1 (P-gp expression) | Change in P-gp expression, NCI-H460 (P-gp expression) | Concentration dependence of P-gp inhibition (Rho 123 accumulation) (P-gp) | IC50 [1] [nM] | IC50 (MRC-5 cells) [nM] | Relative Selectivity (MRC-5 cells) | Change in P-gp expression, NCI-H460/R (P-gp expression; 10 µM 5, 500 nM 7, 500 nM 9, 10 nM TQ)
1 | O=C1c2ccccc2C(=O)c2c(-c3ccncc3)noc21 [Compound 7] | evaded resistance in both MDR cancer cell lines | 231 ± 6 | 390 | did not change P-gp expression | did not change P-gp expression | concentration dependent effect | < 1000 | 599 ± 15 | 3.31 | 
2 | O=C1c2ccccc2C(=O)c2c(-c3cccnc3)noc21 [Compound 9] |  | 172 ± 5 | 540 | did not change P-gp expression | did not change P-gp expression | concentration dependent effect | < 1000 | 302 ± 8 | 3.33 | 
3 | O=C1c2ccccc2C(=O)c2c(-c3ccccc3O)noc21 [Compound 5] | further compromised in the presence of MDR phenotype | 25500 ± 925 | 1550 | did not change P-gp expression | did not change P-gp expression | concentration dependent effect | ≥ 1000 | 128000 ± 39000 | 10.64 | significantly increased P-gp expression
